According to patent publication US8372991B2, “Trisubstituted thiophenes that modulate intracellular calcium” (Calcimedica, Inc., priority 2008, dated 2013):

What follows are molecules tested on JR251 or RBL cells (assay: Store-operated calcium entry IC50 in either JR251 or RBL cells).
Format: cell-based
Procedure: The day prior to performing the assay Orai1/STIM1 stable cells were plated in 50 μL of complete medium at 90-95% confluence in a 384 well plate. Cells were grown at 37° C./6% CO2 overnight. On the day of the assay, 1.5 μM fluo-4-AM (Invitrogen) in complete medium was added to the cells, which were then incubated for 1 hour at RT. Cells were washed once in Ca^2+-free HBSS (Hank's buffered saline solution) and 35 μl of Ca^2+-free HBSS was added to each well. Test compounds were added to wells in a 10 μL Ca^2+-free HBSS solution, prepared at 4.5× the desired final concentration, and incubated for 30 minutes at RT. The initial baseline fluorescence signal was then measured with a FLIPR^384 (Molecular Devices) plate reader. Calcium entry was initiated by adding 5 μl of 10× CaCl2 (10 mM) in HBSS, and changes in cellular fluorescence were measured with the FLIPR^384 plate reader. In each well, the magnitude of the fluorescence signal as a result of calcium entry into the cell was determined by calculating the difference between the peak fluorescence signal measured after calcium addition and the initial baseline fluorescence signal (designated Peak-Basal). IC50 values were typically calculated as the concentration that inhibited 50% of the Peak-Basal signal (Table A).
The day prior to performing the assay, RBL-2H3 cells are plated in 50 μL of complete medium in a 384 well plate. Cells are grown at 37° C./6% CO2 overnight and grow to 50-60% confluence by the next day. On the assay day, 1.5 μM Fluo-4-AM dye (Invitrogen) in complete medium is added and incubated for 1 hour at RT. Cells are washed twice in Ca^2+-free HBSS buffer and 35 μL Ca^2+-free HBSS buffer is added to each well. 10 μL of a test compound prepared in a Ca^2+-free HBSS solution at 4.5× of the desired concentration is added to a well and incubated for 5 minutes at RT. 10 μL of thapsigargin prepared in a Ca^2+-free HBSS solution at 5.5× of the desired concentration (5.5 uM) is added to each well and incubated for an additional 25 minutes. The initial baseline fluorescence signal is measured with a FLIPR^384 (Molecular Devices) plate reader. 5 μL of 12× calcium in HBSS (12 mM) is added and changes in cellular fluorescence are measured with the FLIPR^384 plate reader. In each well, the change in the fluorescent signal as a function of time due to calcium entry into the cell is determined by calculating the difference between the fluorescent signal measured 7 seconds after calcium addition and the initial baseline fluorescence signal at time zero (t=0). This parameter is designated Upslope. The IC50 value is calculated as the concentration at which 50% of the Upslope is inhibited.

IC50 | SMILES
< 10 µM | Cc1nnsc1C(=O)Nc1scc(-c2cnn(-c3ccc(Cl)cc3)c2)c1C(=O)O [4-(1-(4-chlorophenyl)-1H-pyrazol-4-yl)-2-(4-methyl-1,2,3-thiadiazole-5-carboxamido)thiophene-3-carboxylic acid]
< 10 µM | O=C(Nc1scc(-c2cnn(-c3ccc(Cl)cc3)c2)c1C(=O)O)c1cnccn1 [4-(1-(4-chlorophenyl)-1H-pyrazol-4-yl)-2-(pyrazine-2-carboxamido)thiophene-3-carboxylic acid]
< 10 µM | O=C(Nc1scc(-c2cnn(-c3ccc(Cl)cc3)c2)c1C(=O)O)c1ccnnc1 [4-(1-(4-chlorophenyl)-1H-pyrazol-4-yl)-2-(pyridazine-4-carboxamido)thiophene-3-carboxylic acid]
< 10 µM | O=C(Nc1scc(-c2cnn(-c3ccc(Cl)cc3)c2)c1C(=O)O)c1cncnc1 [4-(1-(4-chlorophenyl)-1H-pyrazol-4-yl)-2-(pyrimidine-5-carboxamido)thiophene-3-carboxylic acid]
< 10 µM | O=C(Nc1scc(-c2nc3ccccc3n2C(F)F)c1C(=O)O)c1cccc(F)c1 [4-(1-(difluoromethyl)-1H-benzo[d]imidazol-2-yl)-2-(3-fluorobenzamido)thiophene-3-carboxylic acid]
< 10 µM | Cc1nnsc1C(=O)Nc1scc(-c2c(C)nn(-c3ccccc3)c2C)c1C(=O)O [4-(3,5-dimethyl-1-phenyl-1H-pyrazol-4-yl)-2-(4-methyl-1,2,3-thiadiazole-5-carboxamido)thiophene-3-carboxylic acid]
< 10 µM | Cc1nc(N2CCCCC2)ncc1-c1csc(NC(=O)c2cnccn2)c1C(=O)O [4-(4-methyl-2-(piperidin-1-yl)pyrimidin-5-yl)-2-(pyrazine-2-carboxamido)thiophene-3-carboxylic acid]
< 10 µM | Cc1nc(N2CCCCC2)ncc1-c1csc(NC(=O)c2ccnnc2)c1C(=O)O [4-(4-methyl-2-(piperidin-1-yl)pyrimidin-5-yl)-2-(pyridazine-4-carboxamido)thiophene-3-carboxylic acid]
< 10 µM | Cc1nc(N2CCCCC2)ncc1-c1csc(NC(=O)c2cncnc2)c1C(=O)O [4-(4-methyl-2-(piperidin-1-yl)pyrimidin-5-yl)-2-(pyrimidine-5-carboxamido)thiophene-3-carboxylic acid]
< 10 µM | O=C(CCc1cccc(F)c1)Nc1scc(-c2ccc(Cl)nc2)c1C(=O)O [4-(6-chloropyridin-3-yl)-2-(3-(3-fluorophenyl)propanamido)thiophene-3-carboxylic acid]
< 10 µM | O=C(Nc1scc(-c2ccc(Cl)nc2)c1C(=O)O)c1cccc(F)c1 [4-(6-chloropyridin-3-yl)-2-(3-fluorobenzamido)thiophene-3-carboxylic acid]
< 10 µM | O=C(Nc1scc(-c2cc3ccccc3s2)c1C(=O)O)c1cc2ccccc2o1 [4-(benzo[b]thiophen-2-yl)-2-(benzofuran-2-carboxamido)thiophene-3-carboxylic acid]
< 10 µM | O=C(Nc1scc(-c2ccc3nonc3c2)c1C(=O)O)c1cc2ccccc2o1 [4-(benzo[c][1,2,5]oxadiazol-5-yl)-2-(benzofuran-2-carboxamido)thiophene-3-carboxylic acid]
< 10 µM | O=C(Nc1scc(-c2nc3ccccc3s2)c1C(=O)O)c1cc2ccccc2o1 [4-(benzo[d]thiazol-2-yl)-2-(benzofuran-2-carboxamido)thiophene-3-carboxylic acid]
< 10 µM | O=C(Nc1scc(-c2ccc3scnc3c2)c1C(=O)O)c1cc2ccccc2o1 [4-(benzo[d]thiazol-5-yl)-2-(benzofuran-2-carboxamido)thiophene-3-carboxylic acid]
< 10 µM | O=C(Nc1scc(-c2cnccn2)c1C(=O)O)c1ccnnc1 [4-(pyrazin-2-yl)-2-(pyridazine-4-carboxamido)thiophene-3-carboxylic acid]
< 10 µM | O=C(Nc1scc(-c2cccs2)c1C(=O)O)c1ccccc1Cl [5′-(2-chlorobenzamido)-2,3′-bithiophene-4′-carboxylic acid]
